The source of these data is patent publication US20210282378A1, “Mutant Mouse-Derived Pancreatic Organoid and Method for Evaluating Standardized Drug for Efficacy” (Seoul National University R&DB Foundation, priority 2018, published 2021).

The test system of test [1] is pancreatic organoids derived from BRCA2 gene-deleted mice (Brca2^F11/F11; CreER™). Briefly: Drug responsiveness of pancreatic organoids with normal or exon 11-deleted BRCA2, observed with an inverted microscope. The note with it: alone or in combination with 200 nM TSA, with vs without BRCA2 exon 11 deletion, FIG. 6. Format: cell-based, mouse. The procedure: With reference to the method of Example 2 above, pancreatic organoids derived from BRCA2 gene-deleted mice (Brca2^F11/F11; CreER™) were prepared. To induce a partial deletion of BRCA2 gene (deletion of exon 11 of BRCA2 gene), 4-hydroxytamoxifen (4-OHT) was added to the organoids in an amount of 400 nM, and the resulting organoids were cultured for 3 weeks or more (see Example 2). For comparison, organoids not treated with 4-OHT (in which BRCA2 gene is normal) were also prepared.
Organoids having normal BRCA2 gene (not treated with 4-OHT) and organoids with a partial deletion of BRCA2 (exon 11 deletion) were seeded in equal amounts into 24-well plates. On the day after seeding, the organoids were treated with a mixture of the anticancer agent histone deacetylase inhibitor (HDACi) and a culture medium (see Example 2).
3 days after treatment (first treatment) with HDACi, the culture medium was replaced with a fresh medium, and treatment (second treatment) with each HDACi was performed again at the concentration shown in Table 3. Here, the primary treatment with HDACi was performed about 24 to 48 hours after seeding of the organoids, and 3 days after that, the second treatment was performed.

Test [2] relates to mutant organoids (cancer-like). Kind of test: p53 expression level by Western blot, mutant organoids. The format is cell-based, mouse. To be noted: two treatments 72 hours apart, day 5 after primary treatment; FIG. 15. The procedure:
(§1) The mouse-derived organoids described in Examples 1 to 7 or patient-derived organoids were primarily treated with a drug, and after 72 hours, secondarily treated with the drug. As the drug, Resveratrone used in Examples 9 and 10 was used. On day 2 after the secondary drug treatment (day 5 after the primary drug treatment), the cell culture medium was removed, and then the cells were washed with 1 ml of PBS. After removal of PBS, the cells were mechanically dissociated with 500 μl of a recovery solution. The cell solution was agitated at 50 to 70 rpm at 4° C. for 1 hour, transferred into a microtube, and then centrifuged at 1200 rpm for 5 minutes, followed by removal of the supernatant. The remaining pellet was lysed with NETN buffer, and then sonicated using a sonicator for 1 minute with an output of 2 to 3 and centrifuged at 12,000 rpm for 20 to 30 minutes, and the supernatant was collected. The supernatant was quantified to 100 to 120 μg using Bradford assay, and then loaded onto a 10% polyacrylamide gel, followed by SD S-PAGE (Sodium Dodecyl Sulfate-Polyacrylamide gel electrophoresis) gel running. Then, the gel was transferred to a nitrocellulose membrane, and the transferred membrane was blocked with 5% skim milk while stirring at 50 rpm for 1 hour at RT. […]
In general terms: A western blot detects proteins with antibodies after separation by electrophoresis.

Test [3] relates to pancreatic organoids from Kras^G12D mutant mice. The format is cell-based, mouse. The note with it: FIG. 14A.
Method: The organoids were treated with 0 μM, 200 μM or 500 μM of the drug, followed by analysis of GFP (see FIG. 14A).
For test [4], the system named is normal pancreatic organoids. Briefly: Effect of Resveratrone on normal organoids. To be noted: 0, 200 or 500 μM. Format: cell-based, mouse. The procedure:
Pancreatic tissue isolated from the genetically mutated mice described in Examples 1 to 7 above was dissociated. Cell pellets containing ductal cells were collected from the dissociated pancreatic tissue. The collected cell pellets were grown with a biomatrix in a cell incubator at 37° C. under 5% CO2. Thereafter, the produced organoids were grown in an organoid culture medium until 75% or more thereof grew to a diameter of 200 to 500 μm. […] The organoids were treated with a drug diluted in an organoid culture medium. […] As a result of the measurement, it could be confirmed that, when the above-described drug treatment method was used, it was possible to track the drug responsiveness of each organoid, which was a limitation of a conventional drug screening method using organoids, and drug treatment in a uniform size state was possible. […] As the maximum value of the average diameter of the collected organoids increases, the difference in size (average diameter) between the organoids included increases, so that the difference in responsiveness to the same drug between the organoids increases. Thus, in order to obtain a uniform drug responsiveness result, it is important to determine the upper limit of the size (average diameter) of the organoids. […]

Test [5] has as its system mouse-derived normal organoids. Kind of test: p53 expression level by Western blot, normal organoids. The format is cell-based. To be noted: two treatments 72 hours apart, day 5 after primary treatment; FIG. 15. The procedure: as §1
The test system of test [6] is patient-derived organoids. Kind of test: p53 expression level by Western blot, patient-derived organoids. Format: cell-based, human. The note with it: two treatments 72 hours apart, day 5 after primary treatment; FIG. 15. The procedure: as §1

Turning to `O=C(c1cc(Cc2n[nH]c(=O)c3ccccc23)ccc1F)N1CCN(C(=O)C2CC2)CC1` [Olaparib], in test [1] (10 μM), the “responsiveness to the tested drugs (state of the organoids)” value is “did differ depending on the presence or absence of the BRCA2 gene”.

Regarding `CC[C@@H]1C(=O)N(C)c2cnc(Nc3ccc(C(=O)NC4CCN(C)CC4)cc3OC)nc2N1C1CCCC1` [BI2536], the “responsiveness to the tested drugs (state of the organoids)” value in test [1] (10 nM) is “did differ depending on the presence or absence of the BRCA2 gene”.

On to `CC(=O)/C=C/c1ccc2cc(O)cc(O)c2c1` [Resveratrone], for which the results for the “expression level of p53” value in test [2] and in test [5] were “did not increase” and “increased”, respectively. Moreover, in test [3] (200 μM), the “GFP / green fluorescence of dying cells” value is on record as “exhibited fluorescence”. Moreover, the “GFP / cell death” value in test [3] (500 μM) was “cell death occurred and GFP decreased”. Besides, the “effect of the drug on normal pancreatic organoids” value in test [4] is on record as “no effect”. Further, the “expression level of p53, normal vs cancer tendency” value in test [6] is recorded as “this tendency was also found in the patient-derived organoids”.
